Consider one compound from patent US20160312311A1, “MARKERS FOR ISOCITRATE DEHYDROGENASE INHIBITORS” (NOVARTIS AG, priority 2013, published 2016).

What all share (format): cell-based
The subject of experiment [1] is HCT116 cells (wild type for IDH1 and IDH2). The experiment is described as follows: H3K9me2 Western blot in IDH1 and IDH2 wild type cell line. To be noted: increasing concentrations, 3-6 days. The method, then: In order to examine the role of H3K9me2 levels as marker, cells that were wild type for IDH1 and IDH2, for example HCT116 cells, were treated with a compound that inhibits IDH1 mutant activity (compound 162). HCT116 colon cells cancer cells (ATCC CCL-247) were cultured in McCoy's 5A (Life Technologies, Carlsbad, Calif.) supplemented with 10% fetal bovine serum (Hyclone, Logan Utah). These cells were treated for 3-6 days with increasing concentrations of compound 162 or DMSO vehicle as control.
Histone extracts were prepared with NuPAGE® 4×LDS Sample Buffer (Life Technologies, Carlsbad, Calif.) and heated to 70° C. for 10 minutes. Samples were run on NuPage® Novex 4-12% Bis-Tris gel (Life Technologies, Carlsbad, Calif.) using MES buffer (Life Technologies, Carlsbad, Calif.). The gel was then transferred onto nitrocellulose membrane using the iBlot system (Life Technologies, Carlsbad Calif.) on setting P3 for 7 minutes. The antibodies used are shown above in Table 1.
A general note: In western blotting, separated proteins are transferred to a membrane and probed.

A further experiment relates to HT1080 and SNU1079 cells. The experiment is described as follows: Histone profiling by LC-MS/MS, compound 162 vs. DMSO. To be noted: 3 μM, 6 days. The method, then: Also profiled were three endogenously mutant cell lines upon modulation of the target by chemical or genetic means in order to evaluate other lysine methylation marks. We used histone acid extracts (as described in Example 1) from HT1080 and SNU1079 cells treated with 3 μM compound 162 or DMSO control for 6 days, as well as SW1353 cells that have been induced (100 ng/mL doxycycline) with IDH2 specific shRNA (shIDH2-891 or shNTC) for 6 days. Histones were further enriched with ActiveMotif® Histone purification mini kit (ActiveMotif Inc., Carlsbad, Calif.)
The purified histones were desalted by off line reversed phase chromatography on an 1200 Agilent tower (Agilent, Santa Clara, Calif.) using a Jupiter® 5 μm C4 300 Å Column 150×2 mm (Phenomenex, Torrance, Calif.). The resulting peak area was used to estimate concentration against the peak area of histones of known concentration. The desalted histones were lyophilyzed prior to lysine derivatization. […]
The data obtained via mass spectrometry was interpreted using Mascot Distiller® (Matrix Science, Boston, Mass.) for identification followed by manual verification. The peak area obtained from the data acquired was processed using Skyline Software® (v1.4.0.422 University of Washington, Seattle, Wash.) for quantitation of the peptides bearing post translational modifications.

In experiment [2] the test system is SNU1079 cholangiocarcinoma cells (IDH1-R132C/WT), IDH2-R172K background. The experiment is described as follows: H3K9me2 Western blot in SNU1079 expressing IDH2-R172K. The conditions noted are these: doxycycline-induced IDH2-R172K, day 6. The method, then:
(§1) As disclosed in Example 4, compound 162 is specific for IDH1 mutations. As such, it is a useful compound to determine the contribution of IDH2 to H3K9me2 methylation levels. SNU1079 cholangiocarcinoma cells (KCLB) contain an IDH1 mutation (IDH1-R132C/WT). These cells were cultured in RPMI-1640 (Life Technologies, Carlsbad, Calif.) supplemented with 1% Sodium Pyruvate and 10% Tet-free fetal bovine serum (Hyclone, Logan Utah). Full length IDH2 cDNAs (WT or R172K) were cloned into pLKO-TREX-neomycin for lentiviral transduction (Wee et al., Proc. Nat. Acad. Sci. U.S.A. 2008 105(35):13057-13062). Lentiviral particles were produced by co-transfecting the cDNA expression vector of interest with packaging plasmids Δ8.9 and VSVG into 293T cells (ATCC CRL-11268) using Transit293® transfection reagent (Mirus, Madison, Wis.). Lentiviral supernatants were then used to spin-infect SNU1079 cells in the presence of 8 μg/mL polybrene. Cells recovered overnight in fresh medium and were then selected and continually cultured in appropriate antibiotics.
(§2) SNU1079 stably expressing IDH2 isoforms were co-treated with doxycycline (100 ng/mL) final concentration to induce IDH2 (WT or R172K) expression. These lines were treated with DMSO or doses of compound 162. Cells were harvested on day 6 post-treatment and processed for histones as described above. […]

Experiment [3] relates to SNU1079 cholangiocarcinoma cells (IDH1-R132C/WT), IDH2-WT background. The experiment is described as follows: H3K9me2 Western blot in SNU1079 expressing IDH2 WT. To be noted: doxycycline-induced IDH2 WT, day 6. As for the experimental part: as §1, §2
Experiment [4] deals with IDH1-R132C mutant HT1080 sarcoma cells. The experiment is described as follows: H3K9me2 immunohistochemistry with quantitative image analysis. To be noted: 5 μM, 6 days. The method, then:
In order to determine if changes in H3K9me2 level could be detected via immunohistochemistry, HT1080 cell lines were plated onto […] tissue culture flasks (Corning, Cat #3001, Tewksbury, Mass.). The cells were treated with DMSO or 5 μM compound 162 and incubated for 6 days, with media change at day 3. HT1080 cell pellets were harvested by removing media, washing with 1×PBS, and adding 10 ml of 10% neutral buffer formalin. Cells were then scraped from the bottom of the flask and placed in a 50 ml conical tube, filled to ˜50 ml with 10% neutral buffered formalin, and allowed to fix for 1-2 hours. […]
FFPE slides were cut at 3.5 μm thickness, mounted on charged slides (Thermo-Scientific Colormark® Plus Cat #CM-5951, West Palm Beach, Fla.) and baked at 60° C. for 1 hour. […] The secondary antibody, Ventana OmniMap® HRP-conjugated anti-mouse (Ventana Cat #760-4310 Tucson, Ariz.), was incubated for 4 minutes and detected with Ventana's ChromoMap® DAB detection kit (Ventana Cat #760-159, Tucson, Ariz.). […]
Coverslipped slides were scanned with Aperio ScanScope ® XT (Vista, Calif.) for quantitative digital image analysis. Digital images were analyzed with Visiopharm® (Hoersholm, Denmark) image analysis software. The nuclear detection algorithm detected both hematoxylin and DAB-stained nuclei in the image. […]

`CC(C)[C@H]1COC(=O)N1c1ccnc(N[C@@H](C)c2ccc(Oc3ccccc3)cc2)n1` [compound 162, (S)-4-isopropyl-3-(2-(((S)-1-(4 phenoxyphenyl)ethyl)amino)pyrimidin-4-yl)oxazolidin-2-one]: the “H3K9me2 levels (Western blot, FIG. 4)” value in experiment [1] is on record as “does not affect H3K9me2 levels”. In addition, in the experiment with HT1080 and SNU1079 cells, the “H3K9me0 level, change from control (mass spectrometry, FIG. 7)” value is “H3K9me0 level increases” and the “H3K9me2 level, change from control (mass spectrometry, FIG. 7)” value is listed as “H3K9me2 level reduction”. The “H3K9me2 level (Western blot, FIG. 5 right panel)” value in experiment [2] is recorded as “the reduction of H3K9me2 level is attenuated”. Further, the “H3K9me2 level (Western blot, FIG. 5 left panel)” value in experiment [3] is on record as “able to reduce the H3K9me2 level in a dose-dependent manner”. Moreover, in experiment [4], the “H3K9me2 levels by immunohistochemistry (FIG. 6A)” value is reported as “decreases levels H3K9me2”. Further, the “decrease in H3K9me2 levels, quantitative image analysis (FIG. 6B)” value in experiment [4] (entire cross section, vs DMSO) turned out to be 27%.
